Results: patent publication US6770787B2, “Heavier halogen atom substituted squaraine based dyes, process for the preparation thereof and use thereof as sensitizers for photodynamic, therapeutical and industrial applications” (priority 2001, dated 2004)
Read-outs that look alike come from different tables or passages of the source.

Columns and labels:
AS52 cells [1] = experiment: cell killing efficiency (cytotoxicity) with and without light; type: cell-based; settings: for cytotoxicity (cell survival): in the dark; for cell killing efficiency (% of cell survival): under illumination conditions, increasing concentration
Method: To measure the cell killing efficiency (cytotoxicity) of squaraine based sensitizers with and without light, AS52 cells were exposed to various concentrations of sensitizer. The light exposure was carried out from a 1000 W halogen lamp at a distance of 33 cm in Ca^2+ and Mg^2+ free PBS (140 mM NaCl, 3 mM KCl, 8 mM Na2HPO4, pH 7.4) on ice (10^6 cells/ml). […] The cells were pelleted by centrifugation and resuspended in PBSG three times. The cells were resuspended at 3×10^4 cells/ml in fresh medium at 37° C. and the number of cells were counted repeatedly for 60 h. From the exponential part of the growth curves (between 24 and 60 h), the number of poliferating cells at the time of resuspension was calculated by extrapolation. Cell survival was defined as the ratio between proliferating and resuspended cells.

PM2 DNA [2] = experiment: plasmid DNA cleavage (DNA relaxation assay, single strand breaks) by dye plus light; type: biochemical; settings: SSB in phosphate buffer pH 7.4 without additive = 100%
[3] = stability under irradiation conditions (photobleaching) in buffer; type: physicochemical; settings: for Absorbance: 1000 W halogen lamp; for photobleaching: within 5 min of irradiation, buffer pH 7.4
Method: (§1) The information about the stability of the sensitizer in presence and absence of light is important for its practical use. Therefore, the stability of these dyes in presence and absence of light in ethanol and phosphate buffer at physiological pH conditions (pH 7.4) at 25° C. was studied by following the absorbance change using spectrophotometry. The results of change in absorbance vs time in the dark with representative squaraine based dyes bis(3,5-dibromo-2,4,6-trihydroxyphenyl)squaraine and bis(3,5-diiodo-2,4,6-trihydroxyphenyl)squaraine are shown in TABLE 3.
Compound bis(3,5-diiodo-2,4,6-trihydroxyphenyl)squaraine undergoes very fast photobleaching (nearly 50% within 5 min of irradiation), when compared to bis(3,5-dibromo-2,4,6-trihydroxyphenyl)squaraine (25%). The photobleaching was increased with the time of irradiation in both the cases. While photobleaching might be thought to be disadvantageous property in a tumor photosensitizer, but it has potential benefits since dosage can be adjusted to keep the photosensitizer in tumor at effective levels. Moreover because of their fast photobleaching, a patient after the photodynamic treatment is not required to stay in the dark for long periods of time and if required therapy can be repeated frequently with short intervals of time.

PM2 DNA [4] = experiment: plasmid DNA cleavage (DNA relaxation assay, single strand breaks) by dye plus light; type: biochemical; settings: for Relative number of single strand breaks (%): SSB in phosphate buffer pH 7.4 without additive = 100%; for fold enhancement in the cleavage of DNA: in D2O
Source text: The mechanism of in vitro photodynamic activity of squaraines has been evaluated in detail by using plasmid DNA (PM2 DNA) and investigating the cleavage of DNA under a variety of conditions. Cleavage of DNA cleavage was followed by monitoring the conversion of supercoiled (Form I) to open circular (Form II) and linear forms (Form III). Induction of one single strand break by a compound/agent converts Form I to Form II and the quantification of these forms by DNA relaxation assay as described previously (Epe, B.; Hegler, J. J. Methods Enzymol. 1994, 234, 122) indicates its efficiency of DNA cleavage. Plasmid DNA cleavage is a very sensitive technique, which can be used to test the various properties of sensitizers and the DNA damage profiles obtained by using scavengers and activators can serve as a kind of fingerprint of the species directly responsible for the damage and also provide the information on the mechanism of in vitro photodynamic activity.
PM2 DNA (10,000 bp, 10 μg/mL) exposed to squaraine dyes plus light from a 1000 W halogen lamp (Philips PF811) at a distance of 33 cm in phosphate buffer (5 mM KH2PO4, 50 mM NaCl, pH 7.4) on ice. The modified DNA was precipitated by ethanol/sodium acetate and quantified the single strand breaks (SSB) by DNA relaxation assay. Superoxide dismutase (SOD) (20 μg/ml), catalase (315 U/ml) were added or the H2O in the buffer was replaced by D2O (the final isotope purity was greater than 96%) to have a better understanding of the active species involved. The results of these studies with representative squaraine based dyes bis(3,5-dibromo-2,4,6-trihydroxyphenyl)squaraine and bis(3,5-diiodo-2,4,6-trihydroxyphenyl)squaraine are shown in TABLE 2.

[5] = stability in the dark in ethanol and phosphate buffer (absorbance change); type: physicochemical; settings: for Absorbance: 25° C.
Method: as §1

AS52 cells [6] = experiment: induction of micronuclei; type: cell-based
Method: Further to understand the genetic effects, the micronuclei induced by bis(3,5-dibromo-2,4,6-trihydroxyphenyl)squaraine and bis(3,5-diiodo-2,4,6-trihydroxyphenyl)squaraine were also quantified in AS52 cells. AS52 cells were exposed to squaraines as described above and resuspended in full medium. After incubation for 24 h at 39° C., approximately 1×10^5 cells were fixed on a microscope slide by cytospin-centrifugation and treatment with methanol for 1 h at −21° C. After staining with bisbenzimide for 3 min in PBS (without Ca2+ and Mg2+), 2000 cells were examined for the presence of micronuclei with a fluorescent microscope.

[7] = photosensitized singlet oxygen generation in presence and absence of polyvinylpyrrolidone; type: physicochemical
Source text: Because triplet excited states were the major transient intermediates obtained upon 532 nm laser flash photolysis studies of bis(3,5-dibromo-2,4,6-trihydroxyphenyl)squaraine and bis(3,5-diiodo-2,4,6-trihydroxyphenyl)squaraine, the efficiency of photosensitized singlet oxygen generation by these systems have been examined, since singlet oxygen is the main cytotoxic agent of the type II reactions in photodynamic therapy. Since singly deprotonated forms of bis(3,5-dibromo-2,4,6-trihydroxyphenyl)squaraine and bis(3,5-diiodo-2,4,6-trihydroxyphenyl)squaraine, have significant triplet yields and have long lifetimes (Ramaiah, D; Joy, A.; Chandrasekhar, N; Eldho, N. V.; Das, S.; George, M. V. Photochem. Photobiol. 1997, 65, 783), moreover these are the forms that are expected to be the predominant species under the biological pH conditions (around 7.4). The first level characterization of these dyes for using them as sensitizers in photodynamic therapy, we have investigated their efficiency of singlet oxygen generation in presence of drug carriers, membrane mimics and microheterogeneous media. Results obtained in presence of polyvinylpyrrolidone (PVP) using bis(3,5-dibromo-2,4,6-trihydroxyphenyl)squaraine and bis(3,5-diiodo-2,4,6-trihydroxyphenyl)squaraine are shown in TABLE 1.

[8] = solubility at physiological pH; settings: physiological pH conditions
AS52 cells [9] = experiment: mutagenicity, gpt locus, 6-thioguanine resistant cells; type: cell-based
Method: The mutagenic properties of squaraine based sensitizers was measured in AS52 cells, which carry the bacterial guanine phosphoribosyltraiisferase (gpt) gene as a selection marker that confers sensitivity to 6-thioguanine. AS52 cells were cultured in cleansing medium containing 11 μg/ml xanthine 219 μg/ml xanthine, 22 μg/ml adenine, 1.2 μg/ml aminopterin and 8.8 μg/ml mycophenolic acid) for one week to eliminate spontaneous gpt mutants. […] During this time, exponential growth of cells was maintained. 2×10^5 cells were diluted in 10 ml culture medium and plated in petri dishes (94 mm) After 2 h, 6-thioguanine was added to each plate (final concentration 2.5 μg/ml) for selection. 200 cells were added in 5 ml culture medium and plated in petri dishes (60 mm) to determine the cloning efficiencies. The plates were incubated for 7 to 9 days. The medium was replaced by NaCl solution (0.9% v/v), the cell colonies were fixed with methanol (−20° C.) for 15 min and stained with Giemsa (10% in H2O) for 15 min. The subsequent quantification of 6-thioguanine resistant cells and the determination of cytotoxicity (ratio of the plating efficiences of treated and untreated cells) directly after exposure to squaraines plus light carried out according to the protocol (Tindall, K. R.; Stankowski Jr. L. F.; Machanoff, R.; Hsie, A. W. Mutat. Res. 1986, 160, 121-131).

[10] = buffer pH 7.4, irradiation time 0 min
[11] = buffer pH 7.4, irradiation time 5 min
[12] = buffer pH 7.4, irradiation time 10 min
[13] = buffer pH 7.4, irradiation time 15 min
[14] = buffer pH 7.4, irradiation time 20 min
[15] = buffer pH 7.4, irradiation time 30 min

## O=C1C(I)=C(O)C(=C2C(=O)C(c3c(O)c(I)c(O)c(I)c3O)=C2O)C(O)=C1I [bis(3,5-diiodo-2,4,6-trihydroxyphenyl)squaraine]
AS52 cells [1]
  cytotoxicity (cell survival): no significant effect
  cell killing efficiency (% of cell survival): high cell killing efficiency
PM2 DNA [2]; PH 7.8
  Relative number of single strand breaks (%): 109 ± 22%
PM2 DNA [2]; pH 7.0
  Relative number of single strand breaks (%): 134 ± 9%
[3]; [10]
  Absorbance: 1.72
[3]; [11]
  Absorbance: 0.87
[3]; [12]
  Absorbance: 0.74
[3]; [13]
  Absorbance: 0.65
[3]; [14]
  Absorbance: 0.58
[3]; [15]
  Absorbance: 0.47
[3]
  photobleaching: ~50%
PM2 DNA [4]; Catalase (315 U/mL)
  Relative number of single strand breaks (%): 92 ± 6%
PM2 DNA [4]; D2O Buffer
  Relative number of single strand breaks (%): 614 ± 97%
PM2 DNA [4]; SOD (20 g/mL)
  Relative number of single strand breaks (%): 100 ± 2%
PM2 DNA [4]
  fold enhancement in the cleavage of DNA: six fold
[5]; buffer pH 7.4, dark, 0 min
  Absorbance: 1.35
[5]; buffer pH 7.4, dark, 30 min
  Absorbance: 1.47
[5]; buffer pH 7.4, dark, 60 min
  Absorbance: 1.38
[5]; buffer pH 7.4, dark, 90 min
  Absorbance: 1.36
[5]; buffer solutions at pH 7.4, 90 min
  stability in the dark: slight bleaching
[5]; ethanol
  stability in the dark: very stable
AS52 cells [6]; in presence and absence of light, 24 h incubation
  induction of micronuclei: do not induce significant amounts of micronuclei
[7]; PVP 0 mM
  singlet oxygen quantum yields: 0.47 ± 0.017
[7]; PVP 14 mM
  singlet oxygen quantum yields: 0.62 ± 0.007
[7]; in microheterogeneous media compared with methanol
  increase in efficiency of singlet oxygen generation: ~15%
[8]
  solubility: good solubility
AS52 cells [9]; in presence and absence of light
  induction of mutations (6-thioguanine resistant cells): do not induce immediate mutations
AS52 cells [9]; in presence of light
  cytotoxicity (ratio of plating efficiencies): severe cytotoxicity

## O=C1C(Br)=C(O)C(=C2C(=O)C(c3c(O)c(Br)c(O)c(Br)c3O)=C2O)C(O)=C1Br [bis(3,5-dibromo-2,4,6-trihydroxyphenyl)squaraine]
AS52 cells [1]
  cytotoxicity (cell survival): no significant effect
  cell killing efficiency (% of cell survival): high cell killing efficiency
PM2 DNA [2]; PH 7.8
  Relative number of single strand breaks (%): 105 ± 4%
PM2 DNA [2]; pH 7.0
  Relative number of single strand breaks (%): 127 ± 12%
[3]; [10]
  Absorbance: 1.8
[3]; [11]
  Absorbance: 1.35
[3]; [12]
  Absorbance: 1.30
[3]; [13]
  Absorbance: 1.25
[3]; [14]
  Absorbance: 1.17
[3]; [15]
  Absorbance: 1.10
[3]
  photobleaching: 25%
PM2 DNA [4]; Catalase (315 U/mL)
  Relative number of single strand breaks (%): 115 ± 5%
PM2 DNA [4]; D2O Buffer
  Relative number of single strand breaks (%): 526 ± 28%
PM2 DNA [4]; SOD (20 g/mL)
  Relative number of single strand breaks (%): 109 ± 5%
PM2 DNA [4]
  fold enhancement in the cleavage of DNA: Nearly five
[5]
  stability in the dark: very stable
[5]; buffer pH 7.4, dark, 0 min
  Absorbance: 1.84
[5]; buffer pH 7.4, dark, 30 min
  Absorbance: 1.72
[5]; buffer pH 7.4, dark, 60 min
  Absorbance: 1.65
[5]; buffer pH 7.4, dark, 90 min
  Absorbance: 1.61
[5]; ethanol, dark, 0 min
  Absorbance: 1.90
[5]; ethanol, dark, 30 min
  Absorbance: 1.88
[5]; ethanol, dark, 60 min
  Absorbance: 1.88
[5]; ethanol, dark, 90 min
  Absorbance: 1.88
AS52 cells [6]
  induction of micronuclei: do not induce significant amounts of micronuclei
[7]; PVP 0 mM
  singlet oxygen quantum yields: 0.13 ± 0.005
[7]; PVP 14 mM
  singlet oxygen quantum yields: 0.29 ± 0.001
[8]
  solubility: good solubility
AS52 cells [9]
  induction of mutations (6-thioguanine resistant cells): do not induce immediate mutations
